Measured values: PubChem BioAssay AID248 (DTP/NCI, 2004)
Inconclusive results and toxic doses are left out. No stated cut-off is given here; in the data, active means T/C of 150% or more; inactive means T/C below 125%.

Test system: L1210 leukemia ip in BDF1 mice, survival T/C
Assay: NCI In Vivo Anticancer Drug Screen. Data for tumor model L1210 Leukemia (intraperitoneal) in B6D2F1 (BDF1) mice
Conditions: endpoint: mean survival time, higher = longer survival
Method in brief: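 Tumor cells were implanted, animals were treated, and survival was followed. The result divides the treated measurement by the vehicle-control measurement.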

[1] = dose: 100.0 mg/kg/injection, schedule: Q01DX001 (ip), vehicle: saline
[2] = dose: 200.0 mg/kg/injection, schedule: Q01DX001 (ip), vehicle: saline
[3] = dose: 400.0 mg/kg/injection, schedule: Q01DX001 (ip), vehicle: saline

Measured: T/C

COC1=CCC23C(=O)C=CC(=O)C2(C1)C(=O)c1ccccc1C3=O (centres undefined)
inactive: dose: 3.12 mg/kg/injection, schedule: Q01DX005 (ip), vehicle: saline with Tween-80 110 % of control | dose: 6.25 mg/kg/injection, schedule: Q01DX005 (ip), vehicle: saline with Tween-80 103 % of control | dose: 12.5 mg/kg/injection, schedule: Q01DX005 (ip), vehicle: saline with Tween-80 97 % of control

CCCCOCN(COCCCC)C(C)(C)C
inactive: [1] 93 % of control | [2] 98 % of control | [3] 117 % of control

CCN(CC)CCOC(=O)c1ccc(N=C=S)cc1
inactive: dose: 12.5 mg/kg/injection, schedule: Q01DX009 (ip), vehicle: saline 102 % of control | dose: 25.0 mg/kg/injection, schedule: Q01DX009 (ip), vehicle: saline 100 % of control | dose: 50.0 mg/kg/injection, schedule: Q01DX009 (ip), vehicle: saline 96 % of control

O=c1[nH]c(=O)c2ccccc2c2ccccc12
inactive: dose: 100.0 mg/kg/injection, schedule: Q01DX009 (ip), vehicle: saline with Tween-80 99 % of control | dose: 100.0 mg/kg/injection, schedule: Q04DX003 (ip), vehicle: saline with Tween-80 102 % of control | dose: 200.0 mg/kg/injection, schedule: Q01DX009 (ip), vehicle: saline with Tween-80 86 % of control | dose: 200.0 mg/kg/injection, schedule: Q04DX003 (ip), vehicle: saline with Tween-80 107 % of control | dose: 400.0 mg/kg/injection, schedule: Q01DX009 (ip), vehicle: saline with Tween-80 93 % of control | dose: 400.0 mg/kg/injection, schedule: Q04DX003 (ip), vehicle: saline with Tween-80 102 % of control

O=C1NCCN1
inactive: dose: 100.0 mg/kg/injection, schedule: Q01DX009 (ip), vehicle: saline 101 % of control | dose: 100.0 mg/kg/injection, schedule: Q04DX002 (ip), vehicle: saline 103 % of control | dose: 100.0 mg/kg/injection, schedule: Q04DX003 (ip), vehicle: saline 104 % of control | dose: 200.0 mg/kg/injection, schedule: Q01DX009 (ip), vehicle: saline 106 % of control | dose: 200.0 mg/kg/injection, schedule: Q04DX002 (ip), vehicle: saline 107 % of control | dose: 200.0 mg/kg/injection, schedule: Q04DX003 (ip), vehicle: saline 101 % of control | dose: 400.0 mg/kg/injection, schedule: Q01DX009 (ip), vehicle: saline 106 % of control | dose: 400.0 mg/kg/injection, schedule: Q04DX002 (ip), vehicle: saline 107 % of control | dose: 400.0 mg/kg/injection, schedule: Q04DX003 (ip), vehicle: saline 95 % of control

CC1=C(C(=O)O)CCCO1
inactive: [1] 98 % of control | [2] 98 % of control | [3] 98 % of control

CCn1cnc2cc(N=Cc3ccc(N(CCCl)CCCl)cc3)ccc21
inactive: dose: 56.3 mg/kg/injection, schedule: Q04DX002 (ip), vehicle: saline 106 % of control | dose: 112.5 mg/kg/injection, schedule: Q04DX002 (ip), vehicle: saline 117 % of control | dose: 225.0 mg/kg/injection, schedule: Q04DX002 (ip), vehicle: saline 102 % of control

O=C(OCC1CC=CC1)C1CC=CC1
inactive: dose: 100.0 mg/kg/injection, schedule: Q04DX003 (ip), vehicle: saline sonified 102 % of control | dose: 200.0 mg/kg/injection, schedule: Q04DX003 (ip), vehicle: saline sonified 96 % of control

N=c1ccc2cc3ccc4ccccc4c3n(O)c-2c1
inactive: dose: 100.0 mg/kg/injection, schedule: Q01DX001 (ip), vehicle: saline with Tween-80 113 % of control | dose: 200.0 mg/kg/injection, schedule: Q01DX001 (ip), vehicle: saline with Tween-80 95 % of control | dose: 400.0 mg/kg/injection, schedule: Q01DX001 (ip), vehicle: saline with Tween-80 113 % of control

O=C(NC(=O)C(Cl)Cl)OC1c2cc(Cl)ccc2-c2c(Cl)cc(Cl)cc21 (centres undefined)
inactive: dose: 100.0 mg/kg/injection, schedule: Q01DX001 (ip), vehicle: Klucel (hydroxypropylcellulose) (HPC) 90 % of control | dose: 100.0 mg/kg/injection, schedule: Q01DX009 (ip), vehicle: Klucel (hydroxypropylcellulose) (HPC) 95 % of control | dose: 100.0 mg/kg/injection, schedule: Q04DX003 (ip), vehicle: Klucel (hydroxypropylcellulose) (HPC) 91 % of control | dose: 200.0 mg/kg/injection, schedule: Q01DX001 (ip), vehicle: Klucel (hydroxypropylcellulose) (HPC) 98 % of control | dose: 200.0 mg/kg/injection, schedule: Q01DX009 (ip), vehicle: Klucel (hydroxypropylcellulose) (HPC) 89 % of control | dose: 200.0 mg/kg/injection, schedule: Q04DX003 (ip), vehicle: Klucel (hydroxypropylcellulose) (HPC) 91 % of control | dose: 400.0 mg/kg/injection, schedule: Q01DX001 (ip), vehicle: Klucel (hydroxypropylcellulose) (HPC) 88 % of control | dose: 400.0 mg/kg/injection, schedule: Q04DX003 (ip), vehicle: Klucel (hydroxypropylcellulose) (HPC) 88 % of control

CCc1ccc(N=Nc2c(F)c(F)c(N)c(F)c2F)cc1
inactive: dose: 100.0 mg/kg/injection, schedule: Q01DX001 (ip), vehicle: carboxymethylcellulose (CMC) 100 % of control | dose: 200.0 mg/kg/injection, schedule: Q01DX001 (ip), vehicle: carboxymethylcellulose (CMC) 95 % of control | dose: 400.0 mg/kg/injection, schedule: Q01DX001 (ip), vehicle: carboxymethylcellulose (CMC) 102 % of control

CN(CCNC(=O)c1ccc(Cl)cc1)c1ccccc1
inactive: dose: 100.0 mg/kg/injection, schedule: Q04DX002 (ip), vehicle: Klucel (hydroxypropylcellulose) (HPC) 96 % of control | dose: 200.0 mg/kg/injection, schedule: Q04DX002 (ip), vehicle: Klucel (hydroxypropylcellulose) (HPC) 96 % of control | dose: 400.0 mg/kg/injection, schedule: Q04DX002 (ip), vehicle: Klucel (hydroxypropylcellulose) (HPC) 86 % of control
